Like-named read-outs stand apart in the source and are kept apart here. Bounds are passed on as bounds.

This assay addresses T1, BRM (Homo sapiens, UniProt P51531).
T1 construct: In-Cell Western Screen of BRM Degradation in SW1573 Cells; endogenous in cells; host or cells: SW1573
As to the kind of experiment: In-cell Western screen of BRM degradation in SW1573 cells (Dmax and DC50). In kind it is cell-based. Summed up: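 Adherent SW1573 cultures exposed to test compounds for 18-20 h were processed for in-cell Western after PFA fixation and detergent permeabilization. BRM degradation was reported as Dmax and DC50.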

The mark [1] stands for this setting: BRM degradation, SW1573 cells, read-out: DC50.
Setting [2] is: BRM degradation, SW1573 cells, read-out: Dmax (% degraded).
Where [3] appears, read: SW1573, % degraded, when tested at the top concentration of between 0.3 and 10 μM, read-out: BRM Dmax (%).
Where [4] appears, read: target protein degradation, read-out: BRM DC50.
[5] abbreviates: BRM degradation, SW1573 cells, when tested at the top concentration of between 0.3 and 10 μM, read-out: Dmax (%) (% degraded).
The mark [6] stands for this setting: BRM degradation, SW1573 cells, tested at the top concentration of between 0.3 and 10 μM, read-out: Dmax (%) (% degraded).

T1 sequence (P51531 whole entry): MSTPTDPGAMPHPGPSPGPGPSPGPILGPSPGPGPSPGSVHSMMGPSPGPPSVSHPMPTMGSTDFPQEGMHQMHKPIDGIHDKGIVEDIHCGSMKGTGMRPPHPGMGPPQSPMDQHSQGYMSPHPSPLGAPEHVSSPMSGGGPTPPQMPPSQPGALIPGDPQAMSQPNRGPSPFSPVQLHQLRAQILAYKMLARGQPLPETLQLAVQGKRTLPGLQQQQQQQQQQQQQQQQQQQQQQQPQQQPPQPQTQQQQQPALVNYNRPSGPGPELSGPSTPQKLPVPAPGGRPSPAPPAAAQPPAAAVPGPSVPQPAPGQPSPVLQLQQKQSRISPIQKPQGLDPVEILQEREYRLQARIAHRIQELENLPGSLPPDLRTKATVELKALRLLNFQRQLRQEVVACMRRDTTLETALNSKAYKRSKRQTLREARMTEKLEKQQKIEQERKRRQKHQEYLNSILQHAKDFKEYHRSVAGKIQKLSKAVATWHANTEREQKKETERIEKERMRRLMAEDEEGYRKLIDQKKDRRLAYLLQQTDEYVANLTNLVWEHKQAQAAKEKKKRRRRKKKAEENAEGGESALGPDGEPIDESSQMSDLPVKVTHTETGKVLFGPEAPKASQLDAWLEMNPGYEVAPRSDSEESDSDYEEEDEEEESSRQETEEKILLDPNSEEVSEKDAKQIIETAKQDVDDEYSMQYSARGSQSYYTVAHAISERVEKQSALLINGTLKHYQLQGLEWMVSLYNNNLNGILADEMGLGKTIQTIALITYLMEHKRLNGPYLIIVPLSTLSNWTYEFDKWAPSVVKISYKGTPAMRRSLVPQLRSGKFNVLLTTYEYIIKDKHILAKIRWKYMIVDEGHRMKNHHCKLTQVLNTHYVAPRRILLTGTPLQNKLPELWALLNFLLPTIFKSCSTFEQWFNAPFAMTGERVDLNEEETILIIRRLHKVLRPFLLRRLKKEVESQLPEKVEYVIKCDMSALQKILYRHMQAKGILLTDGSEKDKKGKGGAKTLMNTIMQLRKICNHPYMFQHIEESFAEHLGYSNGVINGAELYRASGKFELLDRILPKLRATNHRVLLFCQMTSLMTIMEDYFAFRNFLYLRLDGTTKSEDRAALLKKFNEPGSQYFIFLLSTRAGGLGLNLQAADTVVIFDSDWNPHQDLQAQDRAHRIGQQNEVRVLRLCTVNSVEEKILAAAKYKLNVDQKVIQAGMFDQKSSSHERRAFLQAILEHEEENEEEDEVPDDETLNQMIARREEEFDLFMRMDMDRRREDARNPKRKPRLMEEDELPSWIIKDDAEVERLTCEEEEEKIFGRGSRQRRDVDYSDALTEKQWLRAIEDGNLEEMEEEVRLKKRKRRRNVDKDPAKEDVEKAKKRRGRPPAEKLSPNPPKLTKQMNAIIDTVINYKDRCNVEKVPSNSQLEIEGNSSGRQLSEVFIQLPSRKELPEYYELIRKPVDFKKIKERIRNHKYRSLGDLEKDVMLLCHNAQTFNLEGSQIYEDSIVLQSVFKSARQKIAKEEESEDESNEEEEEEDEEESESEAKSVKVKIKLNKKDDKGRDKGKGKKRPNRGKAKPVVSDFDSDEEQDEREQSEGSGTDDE

`Cc1ncsc1-c1ccc([C@H](C)NC(=O)[C@@H]2C[C@@H](O)CN2C(=O)[C@H](c2cc(N3CCC(N4CCC(O[C@H]5C[C@H](Oc6cc(N7C8CCC7CN(c7cc(-c9ccccc9O)nnc7N)C8)ccn6)C5)CC4)CC3)no2)C(C)C)cc1` [compound 684, (2S,4R)-1-((2S)-2-(3-(4-((1r,3S)-3-((4-(3-(3-amino-6-(2-hydroxyphenyl)pyridazin-4-yl)-3,8-diazabicyclo[3.2.1]octan-8-yl)pyridin-2-yl)oxy)cyclobutoxy)-[1,4'-bipiperidin]-1'-yl)isoxazol-5-yl)-3-methylbutanoyl)-4-hydroxy-N-((S)-1-(4-(4-methylthiazol-5-yl)phenyl)ethyl)pyrrolidine-2-carboxamide]: the DC50 under setting [1] is 10 to 30 nM. For the same compound, the Dmax under setting [2] was 50 to 75%.
With `Cc1ncsc1-c1ccc([C@H](C)NC(=O)[C@@H]2C[C@@H](O)CN2C(=O)[C@H](c2cc(OCCC3CCN(C(=O)[C@H]4C[C@H](CN5CCC(n6cc(-c7cc(-c8ccccc8O)nnc7N)cn6)CC5)C4)CC3)no2)C(C)C)cc1` [compound 467, (2S,4R)-1-((S)-2-(3-(2-(1-((1r,3S)-3-((4-(4-(3-amino-6-(2-hydroxyphenyl)pyridazin-4-yl)-1H-pyrazol-1-yl)piperidin-1-yl)methyl)cyclobutane-1-carbonyl)piperidin-4-yl)ethoxy)isoxazol-5-yl)-3-methylbutanoyl)-4-hydroxy-N-((S)-1-(4-(4-methylthiazol-5-yl)phenyl)ethyl)pyrrolidine-2-carboxamide], the Dmax under setting [3] is over 75%. Besides, under setting [4], the 50% degradation concentration (DC50) was under 2.5 nM.
Turning to `Cc1ncsc1-c1ccc(CNC(=O)[C@@H]2C[C@@H](O)CN2C(=O)[C@@H](NC(=O)CN2CCN(CCOCCOCCCc3cc(N4C5CCC4CN(c4cc(-c6ccccc6O)nnc4N)C5)ccn3)CC2)C(C)(C)C)cc1` [compound 45, (2S,4R)-1-[(2S)-2-[2-[4-(2-[2-[3-(4-[3-[3-amino-6-(2-hydroxyphenyl)pyridazin-4-yl]-3,8-diazabicyclo[3.2.1]octan-8-yl]pyridin-2-yl)propoxy]ethoxy]ethyl)piperazin-1-yl]acetamido]-3,3-dimethylbutanoyl]-4-hydroxy-N-[[4-(4-methyl-1,3-thiazol-5-yl)phenyl]methyl]pyrrolidine-2-carboxamide], the DC50 under setting [1] is over 30 nM. Also, the Dmax under setting [5] was over 75%.
Turning to `Cc1ncsc1-c1ccc([C@H](C)NC(=O)[C@@H]2C[C@@H](O)CN2C(=O)[C@H](c2cc(OCCn3cc(C(C)n4cc(-c5cc(-c6ccccc6O)nnc5N)cn4)ccc3=O)no2)C(C)C)cc1` (stereo partly drawn) [compound 157, (2S,4R)-1-((2S)-2-(3-(2-(5-(1-(4-(3-amino-6-(2-hydroxyphenyl)pyridazin-4-yl)-1H-pyrazol-1-yl)ethyl)-2-oxopyridin-1(2H)-yl)ethoxy)isoxazol-5-yl)-3-methylbutanoyl)-4-hydroxy-N-((S)-1-(4-(4-methylthiazol-5-yl)phenyl)ethyl)pyrrolidine-2-carboxamide], the DC50 under setting [1] lay in the range of 10 to 30 nM. In addition, the Dmax under setting [6] is over 75%.
With `Cc1ncsc1-c1ccc([C@@H](NC(=O)[C@@H]2C[C@@H](O)CN2C(=O)[C@@H](c2cc(N3CCC(CN4CCC(O[C@H]5C[C@H](Oc6cc(N7C8CCC7CN(c7cc(-c9ccccc9O)nnc7N)C8)ccn6)C5)CC4)CC3)no2)C(C)C)C(F)F)cc1` [compound 572, (2S,4R)-1-((2R)-2-(3-(4-((4-((1r,3r)-3-((4-(3-(3-amino-6-(2-hydroxyphenyl)pyridazin-4-yl)-3,8-diazabicyclo[3.2.1]octan-8-yl)pyridin-2-yl)oxy)cyclobutoxy)piperidin-1-yl)methyl)piperidin-1-yl)isoxazol-5-yl)-3-methylbutanoyl)-N-((R)-2,2-difluoro-1-(4-(4-methylthiazol-5-yl)phenyl)ethyl)-4-hydroxypyrrolidine-2-carboxamide], the maximal degradation (Dmax) (BRM degradation, SW1573 cells, Table 2D, read-out: **Dmax (%) (% degraded)) is over 75%. Also, under “BRM degradation, SW1573 cells, Table 2D, read-out: *DC50”, the DC50 was under 2.5 nM.
As to `CC(C)[C@@H](C(=O)N1C[C@H](O)C[C@H]1C(=O)N[C@@H](C)c1ccc(C#N)cc1)c1cc(N2CCC(CN3CCC(O[C@H]4C[C@H](C#C[C@@H](C)n5cc(-c6cc(-c7ccccc7O)nnc6N)cn5)C4)CC3)CC2)no1` (single isomer, unassigned) [compound 698], the DC50 under setting [1] was under 2.5 nM. Also, under setting [2], the greatest degradation seen (Dmax) is over 75%.
Turning to `COc1cc(-c2scnc2C)ccc1CNC(=O)[C@@H]1C[C@@H](O)CN1C(=O)[C@H](c1cc(OCCN2CCC(O[C@H]3C[C@H](Oc4cc(N5C6CCC5CN(c5cc(-c7ccccc7O)nnc5N)C6)ccn4)C3)CC2)no1)C(C)C` [compound 214, (2S,4R)-1-((2S)-2-(3-(2-(4-((1r,3S)-3-((4-(3-(3-amino-6-(2-hydroxyphenyl)pyridazin-4-yl)-3,8-diazabicyclo[3.2.1]octan-8-yl)pyridin-2-yl)oxy)cyclobutoxy)piperidin-1-yl)ethoxy)isoxazol-5-yl)-3-methylbutanoyl)-4-hydroxy-N-(2-methoxy-4-(4-methylthiazol-5-yl)benzyl)pyrrolidine-2-carboxamide], the half-maximal degradation concentration (DC50) under setting [1] was over 30 nM.
Regarding `CC(C)[C@H](C(=O)N1C[C@H](O)C[C@H]1C(=O)N[C@@H](C)c1ccc(C#N)cc1)c1cc(OCC#Cc2ncc(O[C@H]3C[C@H](Oc4cc(N5C6CCC5CN(c5cc(-c7ccccc7O)nnc5N)C6)ccn4)C3)cn2)no1` [compound 386, (2S,4R)-1-((2S)-2-(3-((3-(5-((1r,3S)-3-((4-(3-(3-amino-6-(2-hydroxyphenyl)pyridazin-4-yl)-3,8-diazabicyclo[3.2.1]octan-8-yl)pyridin-2-yl)oxy)cyclobutoxy)pyrimidin-2-yl)prop-2-yn-1-yl)oxy)isoxazol-5-yl)-3-methylbutanoyl)-N-((S)-1-(4-cyanophenyl)ethyl)-4-hydroxypyrrolidine-2-carboxamide], the Dmax under setting [3] is over 75%. Moreover, the DC50 under setting [4] is 10 to 30 nM.
In the case of `Cc1ncsc1-c1ccc([C@H](C)NC(=O)[C@H]2C[C@H](O)CN2C(=O)C(c2cc(OCCN3CCC(O[C@H]4C[C@H](Oc5cc(N6C7CCC6CN(c6cc(-c8ccccc8O)nnc6N)C7)ccn5)C4)CC3)no2)C(C)C)cn1` (stereo partly drawn) [compound 254, (2R,4S)-1-(2-(3-(2-(4-((1r,3r)-3-((4-(3-(3-amino-6-(2-hydroxyphenyl)pyridazin-4-yl)-3,8-diazabicyclo[3.2.1]octan-8-yl)pyridin-2-yl)oxy)cyclobutoxy)piperidin-1-yl)ethoxy)isoxazol-5-yl)-3-methylbutanoyl)-4-hydroxy-N-((S)-1-(6-(4-methylthiazol-5-yl)pyridin-3-yl)ethyl)pyrrolidine-2-carboxamide], the DC50 under setting [1] is over 30 nM.
Take `Cc1ncsc1-c1ccc([C@H](CO)NC(=O)[C@@H]2C[C@@H](O)CN2C(=O)[C@H](c2cc(OCCN3CCN(CCOc4cc(N5C6CCC5CN(c5cc(-c7ccccc7O)nnc5N)C6)ccn4)CC3)no2)C(C)C)cc1` [compound 158, (2S,4R)-1-((2S)-2-(3-(2-(4-(2-((4-(3-(3-amino-6-(2-hydroxyphenyl)pyridazin-4-yl)-3,8-diazabicyclo[3.2.1]octan-8-yl)pyridin-2-yl)oxy)ethyl)piperazin-1-yl)ethoxy)isoxazol-5-yl)-3-methylbutanoyl)-4-hydroxy-N-((R)-2-hydroxy-1-(4-(4-methylthiazol-5-yl)phenyl)ethyl)pyrrolidine-2-carboxamide]: the DC50 under setting [1] was over 30 nM. Besides, the Dmax under setting [6] is over 75%.
On to `Cc1ncsc1-c1ccc([C@H](C)NC(=O)[C@@H]2C[C@@H](O)CN2C(=O)[C@@H](c2cc(OCCN3CCN(CCOc4cc(N5C6CCC5CN(c5cc(-c7ccccc7O)nnc5N)C6)ccn4)CC3)no2)C(C)C)cc1` [compound 47], for which, under setting [1], the DC50 was under 2.5 nM. Under setting [5], the Dmax is over 75%.
In the case of `Cc1ncsc1-c1ccc([C@@H](COCC(C)C)NC(=O)[C@@H]2C[C@@H](O)CN2C(=O)[C@H](c2cc(OCCN3CCN(CCOc4cc(N5C6CCC5CN(c5cc(-c7ccccc7O)nnc5N)C6)ccn4)CC3)no2)C(C)C)cc1` [compound 297], the DC50 under setting [1] was over 30 nM.
Regarding `Cc1cnsc1-c1ccc([C@H](C)NC(=O)[C@@H]2C[C@@H](O)CN2C(=O)[C@@H](c2cc(OCCN3CCN(CCOc4cc(N5C6CCC5CN(c5cc(-c7ccccc7O)nnc5N)C6)ccn4)CC3)no2)C(C)C)cc1` [compound 266, (2S,4R)-1-((2R)-2-(3-(2-(4-(2-((4-(3-(3-amino-6-(2-hydroxyphenyl)pyridazin-4-yl)-3,8-diazabicyclo[3.2.1]octan-8-yl)pyridin-2-yl)oxy)ethyl)piperazin-1-yl)ethoxy)isoxazol-5-yl)-3-methylbutanoyl)-4-hydroxy-N-((S)-1-(4-(4-methylisothiazol-5-yl)phenyl)ethyl)pyrrolidine-2-carboxamide], the DC50 under setting [1] was under 2.5 nM. Also, the greatest degradation seen (Dmax) under setting [6] was over 75%.
For `Cc1ncsc1-c1ccc([C@H](C)NC(=O)[C@@H]2C[C@@H](O)CN2C(=O)[C@H](c2cc(OCCN3CCN(CCO[C@H]4C[C@H](Oc5cc(N6C7CCC6CN(c6cc(-c8ccccc8O)nnc6N)C7)ccn5)C4)CC3)no2)C(C)C)cc1` [compound 407, (2S,4R)-1-((2S)-2-(3-(2-(4-(2-((1r,3r)-3-((4-(3-(3-amino-6-(2-hydroxyphenyl)pyridazin-4-yl)-3,8-diazabicyclo[3.2.1]octan-8-yl)pyridin-2-yl)oxy)cyclobutoxy)ethyl)piperazin-1-yl)ethoxy)isoxazol-5-yl)-3-methylbutanoyl)-4-hydroxy-N-((S)-1-(4-(4-methylthiazol-5-yl)phenyl)ethyl)pyrrolidine-2-carboxamide], the DC50 (degradation of BRM, read-out: BRM DC50) is over 30 nM.

By DC50 is commonly meant the concentration at which degradation of the target reaches its halfway point. As a reminder, the Dmax is the largest share of the target that was removed.

For the origin of these results see patent publication US12539292B2, “BRM targeting compounds and associated methods of use” (Arvinas Operations, Inc., priority 2018, dated 2026).
